# Assay results as given in patent US20240400577A1, “MODULATORS OF PROTEIN KINASES” (VIBLIOME THERAPEUTICS, LLC, priority 2021, published 2024).
# Assays:
# Assay in all cases: Kinase panel enzymatic inhibition assay (Nanosyn)
# Type in all cases: biochemical
# Conditions in all cases: compound 5 μM; ATP at Km; 30-minute pre-incubation
# [1] = molecular target: T1, BRAF (Homo sapiens, UniProt P15056)
# T1 construct: purchased Nanosyn (contract screening)
# Outline: (§1)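 Single-point screen: compound 5 μM, ATP at Km per kinase, 30 min pre-incubation. Readout by mobility shift (Caliper LabChip), ADP detection or TR-fluorescence. Reported as % inhibition or IC50.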
# [2] = molecular target: T2, MAP4K2 (Homo sapiens, UniProt Q12851)
# T2 construct: purchased Nanosyn (contract screening)
# T2 sequence (Q12851 1-820): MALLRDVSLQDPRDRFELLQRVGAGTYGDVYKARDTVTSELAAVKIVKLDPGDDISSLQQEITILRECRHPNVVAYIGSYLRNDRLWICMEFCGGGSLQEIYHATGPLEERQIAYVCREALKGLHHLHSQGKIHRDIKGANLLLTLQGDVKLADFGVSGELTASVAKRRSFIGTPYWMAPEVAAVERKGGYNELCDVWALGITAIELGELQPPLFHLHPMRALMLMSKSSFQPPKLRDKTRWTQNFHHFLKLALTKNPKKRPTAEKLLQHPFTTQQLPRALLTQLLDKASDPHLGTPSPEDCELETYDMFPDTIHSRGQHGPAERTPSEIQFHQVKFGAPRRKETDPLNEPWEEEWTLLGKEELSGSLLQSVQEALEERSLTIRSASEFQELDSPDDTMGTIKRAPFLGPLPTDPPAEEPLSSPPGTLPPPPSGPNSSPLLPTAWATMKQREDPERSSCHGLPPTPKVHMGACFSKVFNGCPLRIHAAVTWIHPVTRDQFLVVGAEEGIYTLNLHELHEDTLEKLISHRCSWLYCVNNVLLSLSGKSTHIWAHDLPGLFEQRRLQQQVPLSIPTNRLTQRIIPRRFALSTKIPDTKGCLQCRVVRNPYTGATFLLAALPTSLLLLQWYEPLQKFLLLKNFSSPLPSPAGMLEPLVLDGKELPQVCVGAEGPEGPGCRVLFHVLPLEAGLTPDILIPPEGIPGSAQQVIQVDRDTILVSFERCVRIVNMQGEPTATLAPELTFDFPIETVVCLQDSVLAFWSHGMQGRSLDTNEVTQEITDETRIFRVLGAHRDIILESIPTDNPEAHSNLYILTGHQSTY
# Outline: as §1
# [3] = molecular target: T3, DDR2 (Homo sapiens, UniProt Q16832)
# T3 construct: purchased Nanosyn (contract screening)
# T3 sequence (Q16832 22-855): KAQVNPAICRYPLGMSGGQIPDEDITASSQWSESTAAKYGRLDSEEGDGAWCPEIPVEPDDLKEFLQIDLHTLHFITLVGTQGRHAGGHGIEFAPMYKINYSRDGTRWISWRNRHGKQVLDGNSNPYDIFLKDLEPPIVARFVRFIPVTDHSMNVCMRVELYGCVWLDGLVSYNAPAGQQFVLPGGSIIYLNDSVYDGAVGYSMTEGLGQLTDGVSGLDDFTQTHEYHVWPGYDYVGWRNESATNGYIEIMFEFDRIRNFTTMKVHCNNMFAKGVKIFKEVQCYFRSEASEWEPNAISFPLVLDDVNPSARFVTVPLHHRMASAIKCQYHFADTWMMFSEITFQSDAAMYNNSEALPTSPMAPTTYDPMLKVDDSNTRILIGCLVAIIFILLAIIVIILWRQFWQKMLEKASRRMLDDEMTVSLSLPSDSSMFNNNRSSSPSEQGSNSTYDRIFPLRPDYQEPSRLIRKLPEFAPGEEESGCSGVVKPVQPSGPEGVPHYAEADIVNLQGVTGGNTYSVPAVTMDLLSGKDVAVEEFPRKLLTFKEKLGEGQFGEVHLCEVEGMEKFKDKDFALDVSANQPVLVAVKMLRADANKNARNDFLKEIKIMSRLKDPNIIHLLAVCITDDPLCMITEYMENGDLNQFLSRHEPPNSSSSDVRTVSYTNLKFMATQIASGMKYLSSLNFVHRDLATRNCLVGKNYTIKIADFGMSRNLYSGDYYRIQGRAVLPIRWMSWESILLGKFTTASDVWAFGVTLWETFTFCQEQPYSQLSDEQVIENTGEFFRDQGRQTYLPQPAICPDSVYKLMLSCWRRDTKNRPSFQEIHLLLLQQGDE
# Outline: as §1
# [4] = molecular target: T4, SPHK2 (Homo sapiens, UniProt Q9NRA0)
# T4 construct: Nanosyn (contract laboratory that ran the panel)
# T4 sequence (Q9NRA0 1-654): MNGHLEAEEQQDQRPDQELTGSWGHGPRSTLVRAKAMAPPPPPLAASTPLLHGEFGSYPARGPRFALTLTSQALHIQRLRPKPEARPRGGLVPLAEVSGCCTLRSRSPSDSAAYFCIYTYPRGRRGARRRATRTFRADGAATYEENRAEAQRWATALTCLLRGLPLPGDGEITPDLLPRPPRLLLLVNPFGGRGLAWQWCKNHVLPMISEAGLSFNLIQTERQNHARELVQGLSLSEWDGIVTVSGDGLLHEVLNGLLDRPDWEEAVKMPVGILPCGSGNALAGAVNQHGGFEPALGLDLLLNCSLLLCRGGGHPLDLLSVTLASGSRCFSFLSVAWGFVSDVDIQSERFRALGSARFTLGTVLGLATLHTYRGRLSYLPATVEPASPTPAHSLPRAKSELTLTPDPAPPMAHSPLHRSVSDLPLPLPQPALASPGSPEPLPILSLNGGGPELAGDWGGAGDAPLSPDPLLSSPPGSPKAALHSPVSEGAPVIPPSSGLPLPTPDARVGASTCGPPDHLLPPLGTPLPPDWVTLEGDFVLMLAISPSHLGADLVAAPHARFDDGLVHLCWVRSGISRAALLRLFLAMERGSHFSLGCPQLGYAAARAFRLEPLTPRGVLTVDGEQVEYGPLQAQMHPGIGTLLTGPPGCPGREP
# Outline: as §1
# [5] = molecular target: T5, TNIK (Homo sapiens, UniProt Q9UKE5)
# T5 construct: Nanosyn (contract laboratory that ran the panel)
# T5 sequence (Q9UKE5 whole entry): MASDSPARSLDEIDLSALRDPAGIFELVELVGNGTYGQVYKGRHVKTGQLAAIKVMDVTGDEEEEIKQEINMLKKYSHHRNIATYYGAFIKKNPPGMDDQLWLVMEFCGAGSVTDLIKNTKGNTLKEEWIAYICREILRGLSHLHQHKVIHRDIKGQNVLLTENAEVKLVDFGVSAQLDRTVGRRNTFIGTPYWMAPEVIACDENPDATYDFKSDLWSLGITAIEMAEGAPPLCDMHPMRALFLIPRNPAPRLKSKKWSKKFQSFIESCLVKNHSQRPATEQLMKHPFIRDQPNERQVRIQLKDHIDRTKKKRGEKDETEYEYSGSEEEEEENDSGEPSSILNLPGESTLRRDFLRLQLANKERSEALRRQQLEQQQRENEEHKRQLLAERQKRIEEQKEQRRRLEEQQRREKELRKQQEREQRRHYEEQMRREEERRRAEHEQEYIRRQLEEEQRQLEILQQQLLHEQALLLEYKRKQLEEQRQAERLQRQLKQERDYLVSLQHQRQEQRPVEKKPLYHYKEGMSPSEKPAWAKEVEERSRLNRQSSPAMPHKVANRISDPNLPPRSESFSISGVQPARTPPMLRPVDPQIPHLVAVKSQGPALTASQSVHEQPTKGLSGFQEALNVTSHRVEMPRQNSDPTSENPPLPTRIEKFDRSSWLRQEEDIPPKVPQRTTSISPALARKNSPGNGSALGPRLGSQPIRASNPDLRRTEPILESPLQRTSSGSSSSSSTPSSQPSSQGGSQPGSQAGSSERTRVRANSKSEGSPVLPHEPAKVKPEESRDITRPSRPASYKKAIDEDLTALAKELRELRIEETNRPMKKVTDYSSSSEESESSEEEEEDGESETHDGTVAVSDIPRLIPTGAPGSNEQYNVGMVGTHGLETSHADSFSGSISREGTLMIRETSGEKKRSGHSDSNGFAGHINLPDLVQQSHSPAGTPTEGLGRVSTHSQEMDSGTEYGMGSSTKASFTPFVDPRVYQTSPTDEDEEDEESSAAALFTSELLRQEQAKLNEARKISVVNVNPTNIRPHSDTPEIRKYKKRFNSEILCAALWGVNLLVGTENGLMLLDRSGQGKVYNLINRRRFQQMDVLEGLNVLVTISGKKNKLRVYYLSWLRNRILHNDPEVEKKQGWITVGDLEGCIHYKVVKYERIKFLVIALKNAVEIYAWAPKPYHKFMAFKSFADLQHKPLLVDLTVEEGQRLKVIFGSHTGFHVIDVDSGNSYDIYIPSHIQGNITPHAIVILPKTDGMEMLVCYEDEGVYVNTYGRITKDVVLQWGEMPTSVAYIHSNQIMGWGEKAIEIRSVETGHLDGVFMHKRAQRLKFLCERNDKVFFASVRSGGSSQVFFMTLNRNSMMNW
# Outline: as §1
# [6] = molecular target: T6, ERBB4 (Homo sapiens, UniProt Q15303)
# T6 construct: purchased Nanosyn (contract screening)
# T6 sequence (Q15303 26-1308): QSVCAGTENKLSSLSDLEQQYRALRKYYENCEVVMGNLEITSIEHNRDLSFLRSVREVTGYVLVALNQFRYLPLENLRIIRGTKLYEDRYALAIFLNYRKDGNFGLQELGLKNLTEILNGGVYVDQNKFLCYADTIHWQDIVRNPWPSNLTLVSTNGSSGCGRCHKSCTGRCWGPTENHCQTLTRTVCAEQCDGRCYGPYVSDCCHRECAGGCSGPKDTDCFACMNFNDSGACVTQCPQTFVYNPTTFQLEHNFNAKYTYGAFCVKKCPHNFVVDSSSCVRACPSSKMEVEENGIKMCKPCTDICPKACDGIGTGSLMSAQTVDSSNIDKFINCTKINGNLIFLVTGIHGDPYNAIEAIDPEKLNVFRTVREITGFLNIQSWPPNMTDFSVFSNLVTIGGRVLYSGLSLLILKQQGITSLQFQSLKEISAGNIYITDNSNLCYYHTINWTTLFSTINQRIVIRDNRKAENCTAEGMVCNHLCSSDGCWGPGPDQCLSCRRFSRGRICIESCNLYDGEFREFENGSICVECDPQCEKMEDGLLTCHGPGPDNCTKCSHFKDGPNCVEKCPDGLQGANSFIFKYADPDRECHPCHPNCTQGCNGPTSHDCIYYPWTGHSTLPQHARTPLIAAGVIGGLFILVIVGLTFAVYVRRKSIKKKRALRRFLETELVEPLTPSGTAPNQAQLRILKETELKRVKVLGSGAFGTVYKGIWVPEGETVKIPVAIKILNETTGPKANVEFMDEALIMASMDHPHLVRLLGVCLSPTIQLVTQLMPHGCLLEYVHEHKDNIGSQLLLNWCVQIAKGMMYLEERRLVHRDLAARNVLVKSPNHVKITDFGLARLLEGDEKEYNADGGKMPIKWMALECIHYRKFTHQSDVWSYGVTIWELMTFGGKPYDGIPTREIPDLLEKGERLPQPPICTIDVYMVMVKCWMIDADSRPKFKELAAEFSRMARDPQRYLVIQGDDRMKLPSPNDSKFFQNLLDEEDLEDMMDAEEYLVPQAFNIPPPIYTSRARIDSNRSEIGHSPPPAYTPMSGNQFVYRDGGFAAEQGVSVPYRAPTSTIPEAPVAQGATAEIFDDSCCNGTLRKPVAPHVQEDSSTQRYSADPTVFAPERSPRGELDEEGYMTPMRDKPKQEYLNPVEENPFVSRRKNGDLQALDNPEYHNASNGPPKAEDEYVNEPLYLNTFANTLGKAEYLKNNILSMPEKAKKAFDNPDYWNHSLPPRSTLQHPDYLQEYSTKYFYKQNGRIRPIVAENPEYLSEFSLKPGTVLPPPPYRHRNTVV
# Outline: as §1
# [7] = molecular target: T7, PDGFRb (Homo sapiens, UniProt P09619)
# T7 construct: Nanosyn (contract laboratory that ran the panel)
# T7 sequence (P09619 33-1106): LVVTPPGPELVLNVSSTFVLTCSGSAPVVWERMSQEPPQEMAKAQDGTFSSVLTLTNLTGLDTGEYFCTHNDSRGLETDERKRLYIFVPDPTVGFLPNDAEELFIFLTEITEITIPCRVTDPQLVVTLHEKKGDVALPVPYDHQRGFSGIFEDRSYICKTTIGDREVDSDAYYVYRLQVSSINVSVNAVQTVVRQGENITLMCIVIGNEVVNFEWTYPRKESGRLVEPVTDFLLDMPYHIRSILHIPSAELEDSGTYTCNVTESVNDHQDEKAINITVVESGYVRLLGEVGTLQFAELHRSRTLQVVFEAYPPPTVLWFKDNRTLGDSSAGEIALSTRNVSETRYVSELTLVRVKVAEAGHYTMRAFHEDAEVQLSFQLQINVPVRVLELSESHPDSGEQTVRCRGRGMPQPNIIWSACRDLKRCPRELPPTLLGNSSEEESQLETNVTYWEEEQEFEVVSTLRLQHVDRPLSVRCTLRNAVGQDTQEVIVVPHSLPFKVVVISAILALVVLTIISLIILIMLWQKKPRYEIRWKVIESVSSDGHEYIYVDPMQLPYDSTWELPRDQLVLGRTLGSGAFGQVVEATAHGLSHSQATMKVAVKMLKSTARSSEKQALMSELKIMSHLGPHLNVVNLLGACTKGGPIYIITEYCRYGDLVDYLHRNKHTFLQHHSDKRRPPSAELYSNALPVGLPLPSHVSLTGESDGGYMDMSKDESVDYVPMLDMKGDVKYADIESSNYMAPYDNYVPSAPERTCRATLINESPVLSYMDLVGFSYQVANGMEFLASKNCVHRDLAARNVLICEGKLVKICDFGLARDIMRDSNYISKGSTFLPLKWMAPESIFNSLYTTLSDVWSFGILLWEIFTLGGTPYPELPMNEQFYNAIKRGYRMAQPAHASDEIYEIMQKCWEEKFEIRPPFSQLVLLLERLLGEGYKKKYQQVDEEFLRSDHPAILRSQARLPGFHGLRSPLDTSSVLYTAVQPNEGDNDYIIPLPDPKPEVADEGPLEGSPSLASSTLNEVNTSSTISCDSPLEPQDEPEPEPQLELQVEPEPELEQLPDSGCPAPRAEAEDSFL
# Outline: as §1
# T1 sequence (P15056 whole entry): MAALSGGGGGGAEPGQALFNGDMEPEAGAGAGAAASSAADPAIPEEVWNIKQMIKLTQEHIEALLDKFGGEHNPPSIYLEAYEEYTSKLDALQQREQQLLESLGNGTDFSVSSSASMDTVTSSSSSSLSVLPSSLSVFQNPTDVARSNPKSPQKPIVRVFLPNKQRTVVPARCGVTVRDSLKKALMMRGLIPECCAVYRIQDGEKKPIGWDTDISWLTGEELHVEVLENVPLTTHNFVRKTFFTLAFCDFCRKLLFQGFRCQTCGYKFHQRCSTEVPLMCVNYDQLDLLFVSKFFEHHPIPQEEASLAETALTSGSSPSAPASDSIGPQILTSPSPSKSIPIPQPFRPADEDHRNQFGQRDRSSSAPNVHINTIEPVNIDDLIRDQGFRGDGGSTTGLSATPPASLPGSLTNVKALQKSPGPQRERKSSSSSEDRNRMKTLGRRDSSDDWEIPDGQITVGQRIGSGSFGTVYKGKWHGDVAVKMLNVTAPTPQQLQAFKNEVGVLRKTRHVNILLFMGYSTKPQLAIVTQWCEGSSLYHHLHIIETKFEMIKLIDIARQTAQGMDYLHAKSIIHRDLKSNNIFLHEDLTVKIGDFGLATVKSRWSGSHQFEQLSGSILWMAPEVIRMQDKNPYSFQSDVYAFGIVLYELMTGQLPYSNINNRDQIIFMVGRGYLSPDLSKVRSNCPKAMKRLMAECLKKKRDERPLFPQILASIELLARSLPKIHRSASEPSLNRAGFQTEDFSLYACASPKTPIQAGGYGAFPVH
Structure (SMILES),inhibition at 5 µM [1],inhibition at 5 µM [2],inhibition at 5 µM [3],inhibition at 5 µM [4],inhibition at 5 µM [5],inhibition at 5 µM [6],inhibition at 5 µM [7]
"Cc1ccc(NC(=O)c2cc([S+](C)[O-])n(-c3ccc(F)cc3)n2)cc1C#Cc1cnc2cccnn12 (stereo not shown) [Ex6, 1-(4-fluorophenyl)-N-(3-(imidazo[1,2-b]pyridazin-3-ylethynyl)-4-methylphenyl)-5-(methylsulfinyl)-1H-pyrazole-3-carboxamide]",≥ 95%,< 79%,< 79%,< 79%,< 79%,< 79%,≥ 95%
"CCOC(=O)Nc1cn2nc(Nc3cc(NC(=O)c4cc([S+](C)[O-])n(-c5ccc(F)cc5)n4)ccc3C)ccc2n1 (stereo not shown) [Ex18, ethyl (6-((5-(1-(4-fluorophenyl)-5-(methylsulfinyl)-1H-pyrazole-3-carboxamido)-2-methylphenyl)amino)imidazo[1,2-b]pyridazin-2-yl)carbamate]",90 to 94%,< 79%,≥ 95%,80 to 89%,< 79%,< 79%,90 to 94%
"Cc1ccc(NC(=O)c2cc([S+](C)[O-])n(-c3ccc(F)cc3)n2)cc1-c1cc(OCCO)nc(N2CCOCC2)c1 (stereo not shown) [Ex10, 1-(4-fluorophenyl)-N-(3-(2-(2-hydroxyethoxy)-6-morpholinopyridin-4-yl)-4-methylphenyl)-5-(methylsulfinyl)-1H-pyrazole-3-carboxamide]",≥ 95%,< 79%,80 to 89%,< 79%,< 79%,< 79%,< 79%
"Cc1ccc(NC(=O)c2cc(S(C)(=O)=O)n(-c3ccc(F)cc3)n2)cc1Nc1nccc(-c2cccnc2N)n1 [Ex13, N-(3-((4-(2-aminopyridin-3-yl)pyrimidin-2-yl)amino)-4-methylphenyl)-1-(4-fluorophenyl)-5-(methylsulfonyl)-1H-pyrazole-3-carboxamide]",≥ 95%,< 79%,≥ 95%,80 to 89%,< 79%,80 to 89%,≥ 95%
